From PubChem BioAssay (NCI)
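Following 48 hours of exposure in 96-well plates, responses at five concentrations were used to interpolate endpoints linearly. GI50 marks 50% less growth. TGI is the concentration that stops growth completely.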

Tests used:
Assay in all cases: NCI tumour cell line growth inhibition, 48 h
MDA-MB-468 breast = test system: MDA-MB-468 breast
COLO 205 colon = test system: COLO 205 colon
BT-549 breast = test system: BT-549 breast
NCI-H460 lung = test system: NCI-H460 lung
SK-MEL-2 melanoma = test system: SK-MEL-2 melanoma
ACHN renal = test system: ACHN renal
PC-3 prostate = test system: PC-3 prostate
HOP-92 NSCLC = test system: HOP-92 NSCLC
NCI-H226 lung = test system: NCI-H226 lung
EKVX NSCLC = test system: EKVX NSCLC
SK-MEL-5 melanoma = test system: SK-MEL-5 melanoma
SN12C renal = test system: SN12C renal
MDA-MB-231 breast = test system: MDA-MB-231 breast
SW-620 colon = test system: SW-620 colon
SK-OV-3 ovarian = test system: SK-OV-3 ovarian
HCT-116 colon = test system: HCT-116 colon
SF-295 CNS = test system: SF-295 CNS
HCT-15 colon = test system: HCT-15 colon
NCI-H23 lung = test system: NCI-H23 lung
IGROV1 ovarian = test system: IGROV1 ovarian
MDA-MB-435 = test system: MDA-MB-435
A549 NSCLC = test system: A549 NSCLC
LOX IMVI melanoma = test system: LOX IMVI melanoma
DU-145 prostate = test system: DU-145 prostate
MOLT-4 leukemia = test system: MOLT-4 leukemia
SF-268 CNS = test system: SF-268 CNS
SK-MEL-28 melanoma = test system: SK-MEL-28 melanoma
OVCAR-4 ovarian = test system: OVCAR-4 ovarian
TK-10 renal = test system: TK-10 renal
A498 renal = test system: A498 renal
SR leukemia = test system: SR leukemia
SF-539 CNS = test system: SF-539 CNS
UACC-62 melanoma = test system: UACC-62 melanoma
HCC-2998 colon = test system: HCC-2998 colon
MALME-3M melanoma = test system: MALME-3M melanoma
KM12 colon = test system: KM12 colon
786-0 renal = test system: 786-0 renal
HOP-62 NSCLC = test system: HOP-62 NSCLC
RPMI-8226 leukemia = test system: RPMI-8226 leukemia
OVCAR-8 ovarian = test system: OVCAR-8 ovarian
OVCAR-5 ovarian = test system: OVCAR-5 ovarian
HT29 colon = test system: HT29 colon
CAKI-1 renal = test system: CAKI-1 renal
U251 CNS = test system: U251 CNS
OVCAR-3 ovarian = test system: OVCAR-3 ovarian
RXF 393 renal = test system: RXF 393 renal
MCF7 breast = test system: MCF7 breast
NCI-H522 lung = test system: NCI-H522 lung
T-47D breast = test system: T-47D breast
CCRF-CEM leukemia = test system: CCRF-CEM leukemia
K-562 leukemia = test system: K-562 leukemia
UO-31 renal = test system: UO-31 renal
HL-60(TB) leukemia = test system: HL-60(TB) leukemia
SNB-19 CNS = test system: SNB-19 CNS
M14 melanoma = test system: M14 melanoma
SNB-75 CNS = test system: SNB-75 CNS
UACC-257 melanoma = test system: UACC-257 melanoma

## COc1ccc2[nH]cc(-c3nc(-c4cn(C)c5ccncc45)cs3)c2c1
MDA-MB-468 breast
  GI50: 1.97 µM
  TGI: 3.77 µM

## CC1(C)N=C(N)N=C(N)N1c1ccc(F)c(C(F)(F)F)c1
MDA-MB-468 breast
  GI50: 1.47 µM
  TGI: > 100 µM

## COc1ccc(-c2n[nH]nc2-c2csc3ccccc23)cc1OC
MDA-MB-468 breast
  GI50: 0.631 µM
  TGI: 10.7 µM

## COc1cccc(/C=N\Nc2ccc([N+](=O)[O-])cn2)c1O
MDA-MB-468 breast
  GI50: 2.27 µM
  TGI: 6.64 µM

## CN1CCN(c2ccc3nc(-c4cc(C(C)(C)C)c(O)c(C(C)(C)C)c4)[nH]c3c2)CC1
MDA-MB-468 breast
  GI50: 1.92 µM
  TGI: 3.76 µM

## O=C(COc1cccc(/C=C2\COc3ccccc3C2=O)c1)Nc1nccs1
MDA-MB-468 breast
  GI50: 1.91 µM
  TGI: 3.54 µM

## CCN(CC)c1ccc2c(c1)Oc1nc(N)c(C#N)c(N)c1C2Sc1ccc(SC)cc1 (stereo not given)
MDA-MB-468 breast
  GI50: 1.94 µM
  TGI: 3.64 µM

## CN1C(=O)CNC(=O)[C@H](NC(=O)c2nc3ccccc3cc2O)CSSC[C@H]1C(=O)NCCc1nc2ccccc2cc1O
MDA-MB-468 breast
  GI50: 1.32 µM
  TGI: 11 µM

## Cn1c(COC(=O)N2CCCCC2)nc2c(N3CCOCC3)nc(-c3ccccc3)nc21
MDA-MB-468 breast
  GI50: 0.656 µM
  TGI: 2.19 µM

## CCCN(CCC)c1ccc(CO)c(C)c1
MDA-MB-468 breast
  GI50: 0.962 µM
  TGI: 4.32 µM

## COc1ccc2c(c1)c(C1(c3cn(C)c4ccc(OC)cc34)C(=O)Nc3ccc(F)cc31)cn2C
MDA-MB-468 breast
  GI50: 3.4 µM
  TGI: 41.4 µM

## CCC[C@H](N[C@@H]1CCc2cc(F)cc(F)c2C1)C(=O)Nc1cn(C(C)(C)CNCC(C)(C)C)cn1
MDA-MB-468 breast
  GI50: 3.48 µM
  TGI: 29.7 µM

## COc1cc(CSc2nc3ccc(C)cc3c(=O)n2Cc2ccccc2)cc(OC)c1OC
MDA-MB-468 breast
  GI50: 0.479 µM
  TGI: 3.01 µM

## COc1cc(/C=C/C(=O)c2ccc(S(=O)(=O)NCCNc3nc(N(C)C)nc(N4CCOCC4)n3)cc2)cc(OC)c1OC
COLO 205 colon
  GI50: 2.14 µM
  TGI: 5.03 µM
BT-549 breast
  GI50: 2.01 µM
  TGI: 3.73 µM
NCI-H460 lung
  GI50: 3.17 µM
  TGI: 10.4 µM
SK-MEL-2 melanoma
  GI50: 10.7 µM
  TGI: 22.9 µM
ACHN renal
  GI50: 1.78 µM
  TGI: 3.46 µM
PC-3 prostate
  GI50: 3.76 µM
  TGI: 13.6 µM
HOP-92 NSCLC
  GI50: 7.27 µM
  TGI: 25.7 µM
NCI-H226 lung
  GI50: 11.4 µM
  TGI: 28.8 µM
EKVX NSCLC
  GI50: 3.74 µM
  TGI: 19.8 µM
SK-MEL-5 melanoma
  GI50: 7.9 µM
  TGI: 20.7 µM
SN12C renal
  GI50: 2.72 µM
  TGI: 8.71 µM
MDA-MB-231 breast
  GI50: 2.9 µM
  TGI: 7.55 µM
SW-620 colon
  GI50: 1.9 µM
  TGI: 3.75 µM
SK-OV-3 ovarian
  GI50: 14.3 µM
  TGI: 27.4 µM
HCT-116 colon
  GI50: 1.56 µM
  TGI: 3.04 µM
SF-295 CNS
  GI50: 3.04 µM
  TGI: 11.9 µM
HCT-15 colon
  GI50: 1.82 µM
  TGI: 3.91 µM
NCI-H23 lung
  GI50: 3.09 µM
  TGI: 12.3 µM
IGROV1 ovarian
  GI50: 2.6 µM
  TGI: 7.54 µM
MDA-MB-435
  GI50: 1.9 µM
  TGI: 4.02 µM
A549 NSCLC
  GI50: 3.55 µM
  TGI: 14 µM
LOX IMVI melanoma
  GI50: 1.64 µM
  TGI: 3.07 µM
DU-145 prostate
  GI50: 3.31 µM
  TGI: 11.6 µM
MOLT-4 leukemia
  GI50: 2.23 µM
  TGI: 9.28 µM
SF-268 CNS
  GI50: 3.16 µM
  TGI: 12.5 µM
SK-MEL-28 melanoma
  GI50: 2.12 µM
  TGI: 4.8 µM
OVCAR-4 ovarian
  GI50: 2.21 µM
  TGI: 6.35 µM
TK-10 renal
  GI50: 13.1 µM
  TGI: 25.9 µM
A498 renal
  GI50: 14.2 µM
  TGI: 27.4 µM
SR leukemia
  GI50: 1.88 µM
  TGI: 7.84 µM
SF-539 CNS
  GI50: 1.81 µM
  TGI: 3.37 µM
UACC-62 melanoma
  GI50: 2.14 µM
  TGI: 5.54 µM
HCC-2998 colon
  GI50: 1.8 µM
  TGI: 3.26 µM
MALME-3M melanoma
  GI50: 1.97 µM
  TGI: 4.31 µM
KM12 colon
  GI50: 1.7 µM
  TGI: 3.33 µM
786-0 renal
  GI50: 1.89 µM
  TGI: 3.68 µM
HOP-62 NSCLC
  GI50: 2.66 µM
  TGI: 8.72 µM
RPMI-8226 leukemia
  GI50: 1.39 µM
  TGI: 4.66 µM
OVCAR-8 ovarian
  GI50: 2.3 µM
  TGI: 6.07 µM
OVCAR-5 ovarian
  GI50: 2.83 µM
  TGI: 7.57 µM
HT29 colon
  GI50: 1.72 µM
  TGI: 3.19 µM
MDA-MB-468 breast
  GI50: 1.69 µM
  TGI: 3.36 µM
CAKI-1 renal
  GI50: 10.6 µM
  TGI: 23.3 µM
U251 CNS
  GI50: 1.54 µM
  TGI: 2.92 µM
OVCAR-3 ovarian
  GI50: 2.02 µM
  TGI: 4.23 µM
RXF 393 renal
  GI50: 1.22 µM
  TGI: 3.24 µM
MCF7 breast
  GI50: 1.64 µM
  TGI: 3.98 µM
NCI-H522 lung
  GI50: 1.66 µM
  TGI: 3.25 µM
T-47D breast
  GI50: 5.74 µM
  TGI: 23.3 µM
CCRF-CEM leukemia
  GI50: 2.07 µM
  TGI: 7.25 µM
K-562 leukemia
  GI50: 1.46 µM
  TGI: > 100 µM
UO-31 renal
  GI50: 1.57 µM
  TGI: 3.15 µM
HL-60(TB) leukemia
  GI50: 1.97 µM
  TGI: 7.34 µM
SNB-19 CNS
  GI50: 4.28 µM
  TGI: 16.2 µM
M14 melanoma
  GI50: 2.18 µM
  TGI: 6.34 µM
SNB-75 CNS
  GI50: 1.56 µM
  TGI: 15.5 µM
UACC-257 melanoma
  GI50: 5.86 µM
  TGI: 18.5 µM
